Experimental data taken from US10954214B2 (Janssen Pharmaceutica NV, priority 2016, dated 2021).

Tests used:
[1] = tested on: IL6 secretion by OCI-LY3 ABC-DLBCL cells; experiment: Human IL6 Mesoscale assay (OCI-LY3); assay type: cell-based; conditions: Homo sapiens, 24 h
Outline: (§1)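 After 24 h at 37 °C with test compounds (15 μM down to 58.6 nM, 9 twofold steps, 0.3% DMSO), IL6 and IL10 secreted by 100,000 OCI-LY3 or TMD8 cells per well were measured in supernatants with a Mesoscale immunoassay. Data were scaled between DMSO wells (high) and RN486 treatment (low).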

[2] = molecular target: full-length MALT1 protein (Strep-MALT1(1-824)-His) (Homo sapiens (Human), UniProt Q9UDY8); experiment: MALT1 Biochemical Protease Assay (Ac-LRSR-AMC substrate); conditions: 10 nM FL MALT1, 200 μM Ac-LRSR-AMC, 4 h at RT; read-out: MALT1_Biochemical activity (Ac-LRSR-amc) IC50
full-length MALT1 protein (Strep-MALT1(1-824)-His), sequence (Q9UDY8 whole entry): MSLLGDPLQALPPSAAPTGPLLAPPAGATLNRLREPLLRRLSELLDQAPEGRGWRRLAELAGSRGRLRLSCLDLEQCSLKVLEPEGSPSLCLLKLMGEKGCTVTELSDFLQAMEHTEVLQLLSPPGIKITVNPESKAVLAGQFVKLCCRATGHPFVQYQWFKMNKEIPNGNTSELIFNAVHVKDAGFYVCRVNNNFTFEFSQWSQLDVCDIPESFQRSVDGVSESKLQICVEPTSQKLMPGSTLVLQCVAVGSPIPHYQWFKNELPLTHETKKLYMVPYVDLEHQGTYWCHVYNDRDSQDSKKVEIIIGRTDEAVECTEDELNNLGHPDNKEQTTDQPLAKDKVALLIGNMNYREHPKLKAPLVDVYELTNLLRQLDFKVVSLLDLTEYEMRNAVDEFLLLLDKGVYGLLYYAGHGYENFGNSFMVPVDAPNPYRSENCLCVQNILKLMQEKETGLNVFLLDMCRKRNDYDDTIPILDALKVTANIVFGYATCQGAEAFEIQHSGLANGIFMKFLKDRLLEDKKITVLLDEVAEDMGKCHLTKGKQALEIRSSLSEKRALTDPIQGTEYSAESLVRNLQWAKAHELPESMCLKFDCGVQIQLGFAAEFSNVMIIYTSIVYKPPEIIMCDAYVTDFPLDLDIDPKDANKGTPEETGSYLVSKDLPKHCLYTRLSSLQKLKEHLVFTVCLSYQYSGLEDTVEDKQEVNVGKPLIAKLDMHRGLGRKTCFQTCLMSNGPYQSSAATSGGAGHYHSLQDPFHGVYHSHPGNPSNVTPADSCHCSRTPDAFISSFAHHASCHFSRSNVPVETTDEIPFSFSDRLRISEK
Outline: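 Full-length MALT1 pre-incubated with compounds (30 μM to 0.5 nM, 11 threefold steps) for 50 min at RT. After Ac-LRSR-AMC was added, the reaction ran 4 h at RT and AMC fluorescence was read. IC50 and Hill slope from curve fitting against no-enzyme and no-compound controls.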

[3] = tested on: IL10 secretion by OCI-LY3 ABC-DLBCL cells; experiment: Human IL10 Mesoscale assay (OCI-LY3); assay type: cell-based; conditions: Homo sapiens, 24 h
Outline: as §1

IC50 [1] [nM]	IC50 [2] [nM]	IC50 [3] [nM]	SMILES
141	1320	110	O=C(Nc1cnc(-n2nccn2)c(Cl)c1)c1cnn(-c2cnc([C@H]3CCCO3)c3ccccc23)c1C(F)(F)F (single isomer, unassigned) [Cpd 436, (*R)—N-(5-chloro-6-(2H-1,2,3-triazol-2-yl)pyridin-3-yl)-1-(1-(tetrahydrofuran-2-yl)isoquinolin-4-yl)-5-(trifluoromethyl)-1H-pyrazole-4-carboxamide]
186	81	110	O=C(Nc1cnc(-n2nccn2)c(Cl)c1)c1cnn(-c2nsc3ccccc23)c1C(F)(F)F [Cpd 290, 1-(benzo[d]isothiazol-3-yl)-N-(5-chloro-6-(2H-1,2,3-triazol-2-yl)pyridin-3-yl)-5-(trifluoromethyl)-1H-pyrazole-4-carboxamide]
525	331	513	Cc1ccc(-n2ncc(C(=O)Nc3ccnc(C(F)(F)F)c3)c2C(F)(F)F)c2ccnn12 [Cpd 207, 1-(7-methylpyrazolo[1,5-a]pyridin-4-yl)-5-(trifluoromethyl)-N-(2-(trifluoromethyl)pyridin-4-yl)-1H-pyrazole-4-carboxamide]
170	145	98	CN(C)Cc1cnnn1-c1ncc(NC(=O)c2cnn(-c3cccc4ncccc34)c2C(F)(F)F)cc1Cl [Cpd 270, N-(5-chloro-6-(5-((dimethylamino)methyl)-1H-1,2,3-triazol-1-yl)pyridin-3-yl)-1-(quinolin-5-yl)-5-(trifluoromethyl)-1H-pyrazole-4-carboxamide]
50	1350	25	Cc1cc(-n2nccn2)c(C#N)cc1NC(=O)c1cnn(-c2cccc3scnc23)c1C(F)(F)F [Cpd 298, 1-(benzo[d]thiazol-4-yl)-N-(5-cyano-2-methyl-4-(2H-1,2,3-triazol-2-yl)phenyl)-5-(trifluoromethyl)-1H-pyrazole-4-carboxamide]
69	20	37	Cc1nc(-n2nccn2)c(Br)cc1NC(=O)c1cnn(-c2cnc(N)c3ccccc23)c1C(F)(F)F [Cpd 343, 1-(1-aminoisoquinolin-4-yl)-N-(5-bromo-2-methyl-6-(2H-1,2,3-triazol-2-yl)pyridin-3-yl)-5-(trifluoromethyl)-1H-pyrazole-4-carboxamide]
81	282	79	Cc1nc2cccc(-n3ncc(C(=O)Nc4cnc(-n5nccn5)c(C#N)c4)c3C(F)(F)F)n2n1 [Cpd 254, N-(5-cyano-6-(2H-1,2,3-triazol-2-yl)pyridin-3-yl)-1-(2-methyl-[1,2,4]triazolo[1,5-a]pyridin-5-yl)-5-(trifluoromethyl)-1H-pyrazole-4-carboxamide]
331	871	240	O=C(Nc1cnc(-n2nccn2)c(Cl)c1)c1cnn(-c2cccc3cncn23)c1C(F)(F)F [Cpd 233, N-(5-chloro-6-(2H-1,2,3-triazol-2-yl)pyridin-3-yl)-1-(imidazo[1,5-a]pyridin-5-yl)-5-(trifluoromethyl)-1H-pyrazole-4-carboxamide]
126	145	87	NCc1cnn(-c2ncc(NC(=O)c3cnn(-c4cccc5ncccc45)c3C(F)(F)F)cc2Cl)n1 [Cpd 272, N-(6-(4-(aminomethyl)-2H-1,2,3-triazol-2-yl)-5-chloropyridin-3-yl)-1-(quinolin-5-yl)-5-(trifluoromethyl)-1H-pyrazole-4-carboxamide]
129	44	87	CNC(=O)c1ncc(NC(=O)c2cnn(-c3cccc4c(=O)[nH]ccc34)c2C(F)(F)F)cc1Cl [Cpd 352, 3-chloro-N-methyl-5-(1-(1-oxo-1,2-dihydroisoquinolin-5-yl)-5-(trifluoromethyl)-1H-pyrazole-4-carboxamido)picolinamide]
162	83	138	Cc1nc(-n2nccn2)c(Cl)cc1NC(=O)c1cnn(-c2ccc(C)n3nccc23)c1C(F)(F)F [Cpd 318, N-(5-chloro-2-methyl-6-(2H-1,2,3-triazol-2-yl)pyridin-3-yl)-1-(7-methylpyrazolo[1,5-a]pyridin-4-yl)-5-(trifluoromethyl)-1H-pyrazole-4-carboxamide]
741	2570	589	N#Cc1cc(NC(=O)c2cnn(-c3cccc4c(N)nccc34)c2C(F)(F)F)cnc1-n1nccn1 [Cpd 328, 1-(1-aminoisoquinolin-5-yl)-N-(5-cyano-6-(2H-1,2,3-triazol-2-yl)pyridin-3-yl)-5-(trifluoromethyl)-1H-pyrazole-4-carboxamide]
98	102	83	CNC(=O)c1ncc(-n2ncc(C(=O)Nc3cnc(-n4nccn4)c(Cl)c3)c2C(F)(F)F)c2ccccc12 [Cpd 390, 4-(4-((5-chloro-6-(2H-1,2,3-triazol-2-yl)pyridin-3-yl)carbamoyl)-5-(trifluoromethyl)-1H-pyrazol-1-yl)-N-methylisoquinoline-1-carboxamide]
186	417	251	Cc1cc(NC(=O)c2cnn(-c3cnc(N)c4ccccc34)c2C(F)(F)F)c(C)nc1-n1nccn1 [Cpd 334, 1-(1-aminoisoquinolin-4-yl)-N-(2,5-dimethyl-6-(2H-1,2,3-triazol-2-yl)pyridin-3-yl)-5-(trifluoromethyl)-1H-pyrazole-4-carboxamide]
43	933	31	Cc1cc(NC(=O)c2cnn(-c3cccc4c(=O)[nH]ccc34)c2C(F)(F)F)ccn1 [Cpd 347, N-(2-methylpyridin-4-yl)-1-(1-oxo-1,2-dihydroisoquinolin-5-yl)-5-(trifluoromethyl)-1H-pyrazole-4-carboxamide]
145	219	151	Cn1ncc2ccnc(-n3ncc(C(=O)Nc4cnc(-n5nccn5)c(C#N)c4)c3C(F)(F)F)c21 [Cpd 259, N-(5-cyano-6-(2H-1,2,3-triazol-2-yl)pyridin-3-yl)-1-(1-methyl-1H-pyrazolo[3,4-c]pyridin-7-yl)-5-(trifluoromethyl)-1H-pyrazole-4-carboxamide]
29	331	26	O=C(Nc1cnc(-n2nccn2)c(Cl)c1)c1cnn(-c2cc(C3CCN3)nc3ccccc23)c1C(F)(F)F (stereo not drawn) [Cpd 382, 1-(2-(azetidin-2-yl)quinolin-4-yl)-N-(5-chloro-6-(2H-1,2,3-triazol-2-yl)pyridin-3-yl)-5-(trifluoromethyl)-1H-pyrazole-4-carboxamide]
107	324	71	CCc1nc(-n2nccn2)c(Cl)cc1NC(=O)c1cnn(-c2cccc3nccn23)c1C(F)(F)F [Cpd 195, N-(5-chloro-2-ethyl-6-(2H-1,2,3-triazol-2-yl)pyridin-3-yl)-1-(imidazo[1,2-a]pyridin-5-yl)-5-(trifluoromethyl)-1H-pyrazole-4-carboxamide]
115	110	98	O=C(Nc1cnc(-n2nccn2)c(Cl)c1)c1cnn(-c2cnc(C3COCCO3)c3ccccc23)c1C(F)(F)F (stereo not drawn) [Cpd 367, 1-(1-(1,4-dioxan-2-yl)isoquinolin-4-yl)-N-(5-chloro-6-(2H-1,2,3-triazol-2-yl)pyridin-3-yl)-5-(trifluoromethyl)-1H-pyrazole-4-carboxamide]
151	55	117	O=C(Nc1cnc(-c2cn[nH]n2)c(Cl)c1)c1cnn(-c2cccc3ncccc23)c1C(F)(F)F [Cpd 309, N-(5-chloro-6-(2H-1,2,3-triazol-4-yl)pyridin-3-yl)-1-(quinolin-5-yl)-5-(trifluoromethyl)-1H-pyrazole-4-carboxamide]
437	363	309	O=C(Nc1cnc(-n2nc3ccncc3n2)c(Cl)c1)c1cnn(-c2cccc3ncccc23)c1C(F)(F)F [Cpd 162, N-(6-(2H-[1,2,3]triazolo[4,5-c]pyridin-2-yl)-5-chloropyridin-3-yl)-1-(quinolin-5-yl)-5-(trifluoromethyl)-1H-pyrazole-4-carboxamide]
83	3160	41	CCc1cc(NC(=O)c2cnn(-c3cccc4nccn34)c2C(F)(F)F)c(CC)nc1-n1nccn1 [Cpd 196, N-(2,5-diethyl-6-(2H-1,2,3-triazol-2-yl)pyridin-3-yl)-1-(imidazo[1,2-a]pyridin-5-yl)-5-(trifluoromethyl)-1H-pyrazole-4-carboxamide]
79	26	81	Cc1nc(-n2nccn2)c(Cl)cc1NC(=O)c1cnn(-c2cnc(N)c3ccccc23)c1C(F)(F)F [Cpd 180, 1-(1-aminoisoquinolin-4-yl)-N-(5-chloro-2-methyl-6-(2H-1,2,3-triazol-2-yl)pyridin-3-yl)-5-(trifluoromethyl)-1H-pyrazole-4-carboxamide]
2190	302	2240	COc1cc(NC(=O)c2cnn(-c3cccc4ncccc34)c2C(F)(F)F)cnc1-n1nccn1 [Cpd 251, N-(5-methoxy-6-(2H-1,2,3-triazol-2-yl)pyridin-3-yl)-1-(quinolin-5-yl)-5-(trifluoromethyl)-1H-pyrazole-4-carboxamide]
